Like-named read-outs stand apart in the source and are kept apart here.

For one series, the system named is rat primary hepatocytes. Kind of series: FACS analysis of ΔΨm and ROS, rat primary hepatocytes. The settings on record: for Peroxides Production (%) Inducer + UDCA: 100 μM UDCA pretreatment 60 min; for inhibition at 100 µM: Rattus norvegicus, Hepatocyte, 100 μM UDCA, read-out: % Inhibition of peroxides production; for Inhibition % Superoxide Anion / Inhibition % _Ψm: inhibition by UDCA. In kind it is cell-based. As to the method:
A ΔΨm and ROS measurement. ΔΨm and ROS production were measured by FACScan (Becton Dickinson) analysis. Freshly isolated rat hepatocytes were cultured for 3 h as described above and then incubated with William's E medium supplemented with either 100 μM DCA, 100 μM UDCA, equal molar amounts of both, or no bile acid (control), for 6 h. Rat hepatocytes were also cultured with either 1% ethanol, 100 μM UDCA, ethanol+UDCA, or no addition (control) for 4 h. HuH-7 cells, Hep G2 cells, and human osteogenic sarcoma Saos-2 cells were incubated with TGF-β1, anti-Fas antibody or okadaic acid, respectively, for 48 h under the same conditions as outlined above. For combination studies, cells were pretreated with UDCA or hyodeoxycholic acid for 60 min prior to addition of DCA, ethanol, TGF-β1, anti-Fas antibody or okadaic acid. Aliquots of 1.0×10^6 cells were incubated for 15 min at 37° C. with 50 nM 3,3′-dihexyloxacarbocyanine iodide [DiOC6(3)], 2 μM dihydroethidium (HE), or 5 μM 2′,7′-dichlorofluorescin diacetate (H2DCFDA; Molecular Probes, Inc. Eugene, Oreg.) and analyzed by cytofluorometry (Cathcart et al., Anal. Biochem., 134, 111-116 (1983); Zamzami et al., J. Exp. Med., 181, 1661-1672 (1 995); Carter et al., J. Leukocyte Biol., 55, 253-258 (1994)).
Rat primary hepatocytes were incubated with 100 μM DCA and 1% ETOH for 6 h and 4 h, respectively; HuH-7 cells with 1 nM TGF-β1 for 48 h; Hep G2 cells with 0.5 μg/ml anti-Fas antibody (CH-11) for 48 h, and Saos-2 cells with 50 nM okadaic acid (OA) for 48 h. In each combination group, cells were pretreated with 100 μM UDCA alone for 60 min prior to addition of the inducer. Aliquots of 1.0×10^6 cells were incubated for 15 min at 37° C. with 5 μM 2′,7′-dichlorofluorescin diacetate (H2DCFDA) and analyzed by cytofluorometry.
For orientation: A flow cytometer gives signals particle by particle.

The subject of series [1] is HuH-7 cells. Kind of series: Annexin V-biotin assay (phosphatidylserine externalization). In kind it is cell-based, human. The settings on record: 100 μM, 6 h. As to the method: Annexin V-Biotin assay. The annexin V-biotin apoptosis assay was performed on HuH-7 cells according to the manufacturer's recommendations (R & D Systems). […] The chromogenic signal generated from the binding of annexin V to exposed phosphatidylserine moieties was read at 450 nm using a microplate reader (Molecular Devices, Co., Menlo Park, Calif.).

Series [2] is described as follows: Bile acid quantification by gas chromatography in primary rat hepatocytes. In kind it is in vitro ADME. The settings on record: 6 h. Here is the method:
In parallel experiments, isolated rat hepatocytes (2×10^7 cells) and HuH-7 cells (2×10^6 cells) were incubated with 50 μM or 100 μM, respectively, of DCA, UDCA or DCA+UDCA for 6 h. Cells were washed 3 times with PBS, pH 7.4, harvested, centrifuged at 800×g for 5 min in a JS-4.0 Beckman rotor (Beckman Instruments, Inc., Schaumburg, Ill.) at 4° C., washed again, and the final pellet was flash-frozen in liquid nitrogen. Cells were then analyzed for intracellular bile acid concentrations by gas chromatography.
Bile acid quantification by gas chromatography. […] Quantification of bile acids was achieved using gas chromatography, by comparing the peak height response of the individual bile acids with the peak height response obtained from the internal standard, nordeoxycholic acid, which was added to each sample prior to bile acid extraction.

The test system of series [3] is HuH-7 cells. The experiment in a line: DCA-induced apoptosis, Hoechst staining, HuH-7 cells. Format: cell-based. The settings on record: for percent of apoptotic cells: 6 h. The source says: Cell culture and preparation of rat primary hepatocytes. Rat primary hepatocytes were isolated from male Sprague-Dawley rats (200-250 g) by collagenase perfusion as described previously (Mariash et al., J. Biol. Chem, 261, 9583-9586 (1986)). Briefly, rats were aneshtesized with phenobarbitol and the livers were perfused with 0.05% collagenase. Hepatocyte suspensions were obained by passing digested livers through 0.125 mm gauze and washing cells in modified Eagles' medium (MEM, Life Technologies, Inc., Grand Island, N.Y.). […] After isolation, hepatocytes were resuspended in William's E medium (Life Technologies, Inc., Grand Island, N.Y.) supplemented with 26 mM sodium bicarbonate, 23 mM HEPES, 0.01 U/ml insulin, 2 mM L-glutamine, 10 nM dexamethasone, 5.5 mM glucose, 100 U/ml penicillin and 100 U/ml streptomycin and then 1.0×10^6 cells were plated on 35×10 mm […] tissue culture dishes (Becton Dickinson Labware, Lincoln Park, N.J.). The cells were maintained at 37° C. in a humidified atmosphere of 5% CO2 for 3 h. Plates were then washed with medium to remove dead cells, and medium containing 10% heat-inactivated FBS (55° C. for 30 min) was added (Atlanta Biologicals, Inc., Norcross, Ga.). Aliquots of 1.0×10^5 human (HuH-7) hepatoma cells were plated on 35×10 mm tissue culture dishes (Becton Dickinson Labware) and maintained at 37° C. in Dulbecco's MEM (Atlanta Biologicals, Inc.) supplemented with 10% FBS, 100 U/ml penicillin and 100 u/ml streptomycin for 3 h prior to incubation with bile acids.
Incubation of cells with bile acids. Freshly isolated rat hepatocytes were cultured for 3 h as described above and then incubated with William's E medium supplemented with either 50 μM DCA, 50 μM UDCA (Sigma Chemical Co., St. Louis, Mo.), their combination, or no bile acid (control), for 2 h, 4 h, and 6 h. HuH-7 cells cultured for 3 h as described above were incubated with Dulbecco's MEM medium supplemented with either 50 μM, 100 μM, 500 μM, or 1000 μM DCA, UDCA, DCA+UDCA, or no addition (control) for 6 h and 24 h. The medium was gently removed at the indicated time points and scored for nonviable cells by trypan blue dye exclusion. The attached cells were fixed for morphologic assessment of apoptotic changes.
Morphological evaluation of apoptosis. Morphology was performed as described previously (Oberhammer et al., Proc. Natl. Acad. Sci. USA 89, 5408-5412 (1992)). Briefly, after fixation (with 4% formaldehyde in PBS, pH 7.4, for 10 min at room temperature), the cells were incubated with Hoechst dye 33258 (Sigma Chemical Co.) at 5 μg/ml in PBS for 5 min, washed with PBS and mounted with PBS:glycerol (3:1, v/v). Fluorescence was visualized with a Zeiss standard fluorescence microscope (Carl Zeiss, Inc., Thornwood, N.Y.). Photographs were taken with Kodak Ektar-1000 film (Eastman Kodak Co.). Stained nuclei were scored by blind analysis and categorized according to the condensation and staining characteristics of chromatin. Normal nuclei were identified as noncondensed chromatin dispersed over the entire nucleus. Apoptotic nuclei were identified by condensed chromatin, contiguous to the nuclear membrane, as well as nuclear fragmentation of condensed chromatin. Three fields per dish of approximately 500 nuclei were counted; mean values are expressed as the percent of apoptotic nuclei.

Where [4] appears, read: incubated with 50 μM DCA and UDCA combined.
Setting [5] is: incubated with 50 μM of the individual bile acid.

`C[C@H](CCC(=O)O)[C@H]1CC[C@H]2[C@@H]3[C@@H](O)C[C@@H]4C[C@H](O)CC[C@]4(C)[C@H]3CC[C@]12C` [UDCA, ursodeoxycholic acid]: the figures for the “Peroxides Production (%) Inducer + UDCA” value with rat primary hepatocytes (100 μM DCA 6 h) and in the series on rat primary hepatocytes (1% ETOH 4 h) were 4.4 ± 1.5 % and 10.7 ± 3.6 %, respectively. The inhibition at 100 µM in the series on rat primary hepatocytes (inducer DCA, hepatocytes) was 65.8 ± 12.4%; with rat primary hepatocytes (inducer ETOH, hepatocytes), 39.5 ± 12.6%. Also, the “Inhibition % Superoxide Anion” value with rat primary hepatocytes (inducer DCA, hepatocytes) turned out to be 93.5 ± 17.2%; with rat primary hepatocytes (inducer ETOH, hepatocytes), 86.6 ± 5.6%. Besides, the “Inhibition % _Ψm” value was 60.2 ± 6.1 % with rat primary hepatocytes (inducer DCA, hepatocytes) and 61.7 ± 33.9% in the series with rat primary hepatocytes (inducer ETOH, hepatocytes). In the series with HuH-7 cells [1], the “optical density at 450 nm (annexin V binding) relative to controls” value was 0.08±0.02. Moreover, the “intracellular concentration of the bile acid” value in series [2] (setting [4]) worked out at 263.8±39.3 nmol/10^8 cells; in series [2] (setting [5]), 306.0±135.1 nmol/10^8 cells. The apoptotic cells in the series on HuH-7 cells [3] (100 μM DCA + UDCA combination, 24 h) stood at 11.5±2.1%. In addition, the “increase in cell viability by coincubation with UDCA” value with HuH-7 cells [3] (DCA + UDCA, 24 h) is reported as 44±7.1%.
As for `C[C@H](CCC(=O)O)[C@H]1CC[C@H]2[C@@H]3CC[C@@H]4C[C@H](O)CC[C@]4(C)[C@H]3C[C@H](O)[C@]12C` [DCA, deoxycholic acid], in the series with rat primary hepatocytes (100 μM DCA, 6 h, hepatocytes), the “Peroxides Production (%) Inducer” value came to 12.8 ± 0.9%. In addition, the “optical density at 450 nm (annexin V binding) relative to controls” value in the series with HuH-7 cells [1] was found to be 0.27±0.06. Also, the results for the “intracellular concentration of the bile acid” value in series [2] (setting [4]) and in series [2] (setting [5]) were 380.3±32.0 nmol/10^8 cells and 49.5±9.9 nmol/10^8 cells, respectively. Besides, the “percent of apoptotic cells” value was determined as 16.8% with HuH-7 cells [3] (100 μM DCA) and 66.7% in the series on HuH-7 cells [3] (1000 μM DCA). In addition, in the series with HuH-7 cells [3] (100 μM DCA, 24 h), the apoptotic cells is on record as 20±2.8%. Moreover, in the series on HuH-7 cells [3] (elevated bile acid concentrations (up to 1000 μM DCA)), the necrosis entry is given as “no apparent necrosis”.

Broadly, the inhibition is how much of the control response was suppressed.

For the origin of these results see patent US20030044413A1, “Methods of limiting apoptosis of cells” (Regents of the University of Minnesota, priority 1998, published 2003).
